Results on one compound are retold here after US20110131683A1, “Polypeptide Inducing Dwarfism of Plants, Polynucleotide Coding the Polypeptide, and Those Use” (GENOMINE, INC., priority 2007, published 2011).

Holding throughout (assay type): in vivo, Arabidopsis thaliana
In test [1] the test system is proteins up-regulated by AtGA2ox4 overexpression. The experiment in a line: Two-dimensional electrophoresis of proteins of SEN::AtGA2ox4 mutant. The following applies: SEN::AtGA2ox4 mutant grown 30 days, 2-D electrophoresis, Table 2. The protocol: Proteins were isolated from the wild-type Arabidopsis thaliana (FIG. 13), the SEN::AtGA2ox4 mutant (FIG. 14), and the GA3-treated SEN::AtGA2ox4 mutant (FIG. 15), all grown for 30 days after germination, and analyzed for expression pattern by two-dimensional electrophoresis. Protein isolation for each plant was conducted as follows. Each plant was mashed in 10 volumes of a reagent comprising 7M urea, 2M thiourea, 4% (w/v) 3-[(3-cholamidopropy)dimethyammonio]-1-propanesulfonate (CHAPS), 1% (w/v) dithiothreitol (DTT), 2% (v/v) pharmalyte and 1 mM benzamidine, followed by heating at 100° C. for 10 min. After centrifugation at 15,000 rpm for 1 hour, the supernatant was used as a sample for two-dimensional electrophoresis. Protein quantities were determined using the Bradford method (Bradford et al., 1976). For primary isoelectric focusing (IEF), IPG strips were soaked at room temperature for 12-16 hrs in a reswelling solution comprising 7M urea, 2M thiourea, 2% 3-[(3-cholamidopropy)dimethylammonio]-1-propanesulfonate (CHAPS), 1% dithiothreitol (DTT) and 1% pharmalyte. Each protein sample was used in the amount of 200 μg per strip. […] The protein spots were quantified to examine a change in expression level by the analysis of the scanned images using the PDQuest software (version 7.0, BioRad). The quantity of each spot was normalized according to the total intensity of valid spots. […]

The subject of test [2] is SEN::AtGA2ox4-9 and SEN::AtGA2ox4-10 dwarfism lines. Put plainly: Phenotype recovery of SEN::AtGA2ox4 mutant by treatment with GA3. The protocol:
In order to examine whether the AtGA2ox4 gene is actually involved in gibberellin catabolism, the SEN::AtGA2ox4-9 and the SEN::AtGA2ox4-10 line, both showing dwarfism phenotypes, were grown for 30 days while 10^−4 M GA3 (Sigma, USA) was applied twice at intervals of one week starting from 12 days after germination. Treatment with the active gibberellin GA3 may recover the phenotype of the dwarfism-induced mutant in which gibberellin insufficiency was caused by the overexpression of the AtGA2ox4 gene, to that of the wild-type. Comparisons were made between the mutants treated with or without GA3 (FIGS. 10, 11 and 12). […] This was true of GA3-treated mutants. These facts allow an inference that the gene of the present invention plays an important role in dwarfism induction in plants, but is not involved in the control of flowering time.

Test [3] relates to AtGA20ox1, AtGA20ox2 and AtGA3ox1 expression. The experiment in a line: RT-PCR expression of gibberellin biosynthesis-related genes in SEN::AtGA2ox4 mutant. The following applies: FIG. 9. Here is the method:
Genes associated with GA 2-oxidase activity, flowering and a feedback mechanism of the gibberellin metabolism in the SEN::AtGA2ox4 mutant with a dwarfism phenotype were analyzed for expression patterns. In this regard, total RNA was isolated from flowers, roots, stems, leaves and siliques of the wild-type Arabidopsis thaliana and the SEN::AtGA2ox4 mutant, both grown for 30 days after germination, with the aid of RNasey Plant Mini Kit (QIAGEN, Germany). cDNA was synthesized from 1 μg of each RNA using Superscript III Reverse Transcriptase (INVITROGEN, USA) under the conditions of 65° C., 5 min; 50° C., 60 min; and 70° C., 15 min. Then, PCR was performed using the synthesized cDNAs as templates in the presence of the primers, specific for GA 2-oxidase and flowering genes, listed in Table 1, below. The PCR was initiated by denaturing the template DNA at 94° C. for 2 min and performed with 30 cycles of 94° C., 1 min; 55° C., 1.5 min; and 72° C., 1 min, followed by extension at 72° C. for 15 min. […]
An examination was made about whether the gene of the present invention is involved in the feedback mechanism of the gibberellin metabolism and thus in gibberellin catabolism. For this, AtGA20ox1 and AtGA20ox2, both coding for GA20-oxidase, and AtGA3ox1 coding for GA3-oxidase were analyzed for expression levels in the SEN::AtGA2ox4 mutant. […]

Consider `C=C1C[C@]23C[C@@]1(O)CC[C@H]2[C@@]12C=C[C@H](O)[C@@](C)(C(=O)O1)[C@H]2[C@@H]3C(=O)O` [GA3], for which the “proteins up-regulated by AtGA2ox4 overexpression, after GA3 treatment” value in test [1] is “recovered to the phenotype of the wild-type”. Besides, in test [2] (10^-4 M GA3 applied twice at intervals of one week starting 12 days after germination, grown 30 days, SEN::AtGA2ox4-9 and -10 lines), the “phenotype of dwarfism-induced mutant lines after GA3 treatment” value is on record as “recovered almost perfectly to the wild-type phenotype”. Also, in test [2] (GA3-treated SEN::AtGA2ox4 mutants), the “flowering time of GA3-treated mutants versus wild-type” value is on record as “not different in flowering time from the wild-type”. For the same compound, in test [3], the “expression levels of AtGA20ox1, AtGA20ox2 and AtGA3ox1 after GA3 treatment” value is “return the expression levels to those of the wild-type”.
